For test [1], the target named is T1, Gal-1 (Homo sapiens, UniProt P09382).
T1 construct: made in house; host or cells: E. coli BL21(DE3)
Description: Competition pull-down with lactose. The class given is binding. Particulars: H14 library; lactose 10 mM; read-out: Surface mapping KD (apparent), competition. In a few lines: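 His6-tagged proteins immobilized on Co-NTA resin at 64 µM final with 64-member LSM foldamer sublibraries (1 M each, as printed) in pH 7.4 HEPES/NaCl buffers (Ca2+/TCEP per target), 30 min RT; competitor peptides 200 µM final, lactose 10 mM for Gal-1. Bound fractions from LC-MS loss vs protein-free resin; KD assuming 1:1 binding.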

The target in test [2] is T2, CaM (Bos taurus, UniProt P62157).
T2 construct: made in house; host or cells: E. coli BL21 (DE3)
In words: Pull-down assay with immobilized protein and LSM libraries. Format: binding, bovine. The settings on record: H14 library; 1:2 stoichiometry assumed; read-out: Surface mapping KD (apparent). In a few lines: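 His-tagged protein immobilized on Co-NTA resin, equilibrated 30 min at room temperature with LSM sublibraries (64 members, […]), equimolar protein to total probe. CaM buffer: 20 mM HEPES pH 7.4, 150 mM NaCl, 5 mM CaCl2. Bound fractions from HPLC-MS loss of unbound probe versus protein-free resin control; Kd derived.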

The next test has as its target T3, RecQ-WH (Escherichia coli, UniProt P15043).
T3 construct: coding for residues 408– 523 of E. coli RecQ; made in house; host or cells: E. coli BL21(DE3)
The test is described as above. Particulars: H14 library; 1:1 binding assumed; read-out: Surface mapping KD (apparent). The arrangement: species or system E. coli. In a few lines: (§1)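 His-tagged protein immobilized on Co-NTA resin (64 µM) in 20 mM HEPES pH 7.4, 150 mM NaCl, equilibrated 30 min at room temperature with foldamer LSM sublibraries at equimolar total concentration. Unbound fractions quantified by HPLC-MS versus protein-free resin control; apparent KD assumes 1:1 binding.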

Test [3] addresses T4, S100B (Homo sapiens, UniProt P04271).
T4 construct: made in house; host or cells: Escherichia coli BL21(DE3)
T4 sequence (P04271 1-92): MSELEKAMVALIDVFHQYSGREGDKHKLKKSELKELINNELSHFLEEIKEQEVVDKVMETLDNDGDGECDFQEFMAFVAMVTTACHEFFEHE
In words: Competition pull-down with native ligand RSK1 (689–735). Format: binding. Particulars: H14 library; competitor peptide 200 µM; read-out: Surface mapping KD (apparent), competition.

Test [4] has as its target T1, Gal-1. Description: Pull-down assay with immobilized protein and LSM libraries. The class given is binding. Particulars: H14 library; 1:1 binding assumed; read-out: Surface mapping KD (apparent). In a few lines: as §1
Another test addresses T5, S100A4 (Homo sapiens, UniProt P26447).
T5 construct: made in house; host or cells: Escherichia coli BL21(DE3)
The description is as above. Particulars: for Kd: H14 library, 1:1 binding assumed, read-out: Surface mapping KD (apparent). Format: binding. A digest of the protocol:
(§2)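 Buffers were HEPES pH 7.4 with 150 mM NaCl, plus 1 mM TCEP and 1 mM CaCl2 (50 mM HEPES) for S100A4 and S100B, 1 mM TCEP for Gal-1, and no additive for RecQ-WH. Immobilized protein at 64 µM was equilibrated 30 min with the LSM sublibrary, and unbound probes were measured by LC-MS.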

In test [5] the target is T4, S100B. Described as above. The class given is binding. Particulars: for Kd: H14 library, 1:1 binding assumed, read-out: Surface mapping KD (apparent). A digest of the protocol:
as §2

For test [6], the target named is T2, CaM. In words: Competition pull-down with native ligand TRPV1-Ct15. The class given is binding, bovine. Particulars: H14 library; competitor peptide 200 µM; read-out: Surface mapping KD (apparent), competition.
Where [7] appears, read: H14 probes selected for validation.

T1 sequence (P09382 whole entry): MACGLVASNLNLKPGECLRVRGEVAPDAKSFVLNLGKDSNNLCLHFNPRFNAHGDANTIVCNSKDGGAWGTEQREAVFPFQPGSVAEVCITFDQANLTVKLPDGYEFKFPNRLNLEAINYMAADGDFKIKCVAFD
T3 sequence (P15043 408-523): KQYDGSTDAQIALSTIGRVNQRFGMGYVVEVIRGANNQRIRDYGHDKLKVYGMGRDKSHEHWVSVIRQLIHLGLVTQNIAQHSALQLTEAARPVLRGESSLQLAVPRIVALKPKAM
T5 sequence (P26447 whole entry): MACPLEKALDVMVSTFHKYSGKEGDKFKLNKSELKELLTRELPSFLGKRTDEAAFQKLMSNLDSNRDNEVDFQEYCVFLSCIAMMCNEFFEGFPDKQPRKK

As for `CC(C)C[C@@H](CC(=O)N[C@H]1CCCC[C@@H]1C(N)=O)NC(=O)[C@H]1CCCC[C@@H]1NC(=O)[C@H]1CCCC[C@@H]1NC(=O)C[C@H](C)NC(=O)[C@H]1CCCC[C@@H]1N` [H14 AL], the Kd at Gal-1 [1] was determined as 272 µM; on CaM [2], 13 µM; on RecQ-WH, 401 µM; at S100B [3], 313 µM; on Gal-1 [4], 127 µM; on S100A4, 7 µM. In addition, on S100B [5], the Kd was 108 µM.
Take `NC(=O)[C@H]1CCCC[C@@H]1NC(=O)C[C@H](Cc1ccccc1)NC(=O)[C@H]1CCCC[C@@H]1NC(=O)[C@H]1CCCC[C@@H]1NC(=O)C[C@H](CC(=O)O)NC(=O)[C@H]1CCCC[C@@H]1N` [H14 DF]: the Kd was 388 µM on Gal-1 [1]; 220 µM on CaM [6]; 288 µM at RecQ-WH; 130 µM on S100B [3]; 339 µM on S100B [5].
In the case of `NC(=O)[C@H]1CCCC[C@@H]1NC(=O)C[C@H](Cc1ccccc1)NC(=O)[C@H]1CCCC[C@@H]1NC(=O)[C@H]1CCCC[C@@H]1NC(=O)C[C@H](CCC(=O)O)NC(=O)[C@H]1CCCC[C@@H]1N` [H14 EF], the Kd at Gal-1 [1] is 430 µM; on RecQ-WH it was 241 µM; on S100B [3] it was 126 µM; on S100B [5], 476 µM.
In the case of `C[C@@H](CC(=O)N[C@H]1CCCC[C@@H]1C(N)=O)NC(=O)[C@H]1CCCC[C@@H]1NC(=O)[C@H]1CCCC[C@@H]1NC(=O)C[C@H](Cc1ccccc1)NC(=O)[C@H]1CCCC[C@@H]1N` [H14 FA], the Kd on Gal-1 [1] came out at 151 µM; at CaM [6], 309 µM; at CaM [2] it was 3 µM; on RecQ-WH, 282 µM; on S100B [3] it was 330 µM; at Gal-1 [4], 130 µM. Moreover, the Kd at S100A4 stood at 58 µM; at S100B [5] it was 253 µM.
`NCCCC[C@@H](CC(=O)N[C@H]1CCCC[C@@H]1C(N)=O)NC(=O)[C@H]1CCCC[C@@H]1NC(=O)[C@H]1CCCC[C@@H]1NC(=O)C[C@H](Cc1ccccc1)NC(=O)[C@H]1CCCC[C@@H]1N` [H14 FK]: the Kd on Gal-1 [1] turned out to be 153 µM; on CaM [2], 4 µM; at RecQ-WH, 424 µM; at S100B [3] it was 391 µM; at Gal-1 [4] it was 154 µM; on S100A4, 141 µM. Further, the Kd on S100B [5] was 63 µM.
For the compound `N=C(N)NCCC[C@@H](CC(=O)N[C@H]1CCCC[C@@H]1C(N)=O)NC(=O)[C@H]1CCCC[C@@H]1NC(=O)[C@H]1CCCC[C@@H]1NC(=O)C[C@H](Cc1ccccc1)NC(=O)[C@H]1CCCC[C@@H]1N` [H14 FR], the Kd on Gal-1 [1] is 208 µM; on CaM [6] it was 290 µM; on CaM [2] it was 3 µM; on RecQ-WH it was 447 µM; at S100B [3] it was 406 µM; on Gal-1 [4] it was 222 µM. For the same compound, the results for the Kd at S100A4 and at S100B [5] were 124 µM and 56 µM, respectively.
Consider `CSCC[C@@H](CC(=O)N[C@H]1CCCC[C@@H]1C(N)=O)NC(=O)[C@H]1CCCC[C@@H]1NC(=O)[C@H]1CCCC[C@@H]1NC(=O)C[C@H](CCCCN)NC(=O)[C@H]1CCCC[C@@H]1N` [H14 KM], for which the Kd at CaM [6] worked out at 146 µM; at CaM [2], 63 µM; at RecQ-WH, 459 µM; at S100B [3], 140 µM; on S100A4, 95 µM; on S100B [5], 119 µM.
With `CC(C)C[C@@H](CC(=O)N[C@H]1CCCC[C@@H]1C(=O)N[C@H]1CCCC[C@@H]1C(=O)N[C@H](CC(=O)N[C@H]1CCCC[C@@H]1C(N)=O)Cc1ccc(O)cc1)NC(=O)[C@H]1CCCC[C@@H]1N` [H14 LY], the Kd at CaM [6] turned out to be 455 µM; at CaM [2], 10 µM; on RecQ-WH, 239 µM; on S100B [3], 154 µM; at Gal-1 [4], 231 µM; on S100A4, 26 µM. Moreover, on S100B [5], the Kd came out at 85 µM.
In the case of `CSCC[C@@H](CC(=O)N[C@H]1CCCC[C@@H]1C(=O)N[C@H]1CCCC[C@@H]1C(=O)N[C@H](CC(=O)N[C@H]1CCCC[C@@H]1C(N)=O)Cc1ccccc1)NC(=O)[C@H]1CCCC[C@@H]1N` [H14 MF], the Kd on Gal-1 [1] was found to be 181 µM; on CaM [6], 133 µM; at CaM [2], 2 µM; at RecQ-WH, 304 µM; on S100B [3], 316 µM; at Gal-1 [4], 223 µM. The Kd stood at 23 µM at S100A4 and 85 µM at S100B [5].
In the case of `CSCC[C@@H](CC(=O)N[C@H]1CCCC[C@@H]1C(N)=O)NC(=O)[C@H]1CCCC[C@@H]1NC(=O)[C@H]1CCCC[C@@H]1NC(=O)C[C@H](CCSC)NC(=O)[C@H]1CCCC[C@@H]1N` [H14 MM], the Kd at CaM [6] amounted to 448 µM; at CaM [2], 16 µM; on RecQ-WH, 455 µM; at S100B [3] it was 276 µM; at Gal-1 [4], 183 µM; at S100A4 it was 14 µM. Moreover, the Kd on S100B [5] came out at 174 µM.
For `CSCC[C@@H](CC(=O)N[C@H]1CCCC[C@@H]1C(=O)N[C@H]1CCCC[C@@H]1C(=O)N[C@H](CC(=O)N[C@H]1CCCC[C@@H]1C(N)=O)C(C)C)NC(=O)[C@H]1CCCC[C@@H]1N` [H14 MV], the Kd worked out at 218 µM at Gal-1 [1]; 3 µM on CaM [2]; 294 µM on RecQ-WH; 360 µM at S100B [3]; 178 µM at Gal-1 [4]; 21 µM at S100A4. Also, on S100B [5], the Kd turned out to be 118 µM.
In the case of `C[C@@H](O)[C@@H](CC(=O)N[C@H]1CCCC[C@@H]1C(=O)N[C@H]1CCCC[C@@H]1C(=O)N[C@H](CC(=O)N[C@H]1CCCC[C@@H]1C(N)=O)Cc1c[nH]c2ccccc12)NC(=O)[C@H]1CCCC[C@@H]1N` [H14 TW], the Kd at Gal-1 [1] worked out at 147 µM; at CaM [2] it was 16 µM; on RecQ-WH it was 288 µM; on S100B [3], 258 µM; on Gal-1 [4], 143 µM; at S100A4, 189 µM. In addition, at S100B [5], the Kd stood at 47 µM. For the same compound, the “Binding” value at S100A4 (H14 probes) is listed as “does not”; at S100B [5] (H14 probes) it was “binds”. Also, the “Affinity class of probe (high, medium, low) in pull-down” value is recorded as “low” at S100A4 (setting [7]) and “medium” on S100B [5] (setting [7]).
Take `CC(C)[C@@H](CC(=O)N[C@H]1CCCC[C@@H]1C(=O)N[C@H]1CCCC[C@@H]1C(=O)N[C@H](CC(=O)N[C@H]1CCCC[C@@H]1C(N)=O)Cc1ccc(O)cc1)NC(=O)[C@H]1CCCC[C@@H]1N` [H14 VY]: the Kd at CaM [2] turned out to be 30 µM; at RecQ-WH it was 115 µM; at S100B [3], 167 µM; on Gal-1 [4], 318 µM; at S100A4, 50 µM; on S100B [5], 110 µM.
`C[C@@H](CC(=O)N[C@H]1CCCC[C@@H]1C(N)=O)NC(=O)[C@H]1CCCC[C@@H]1NC(=O)[C@H]1CCCC[C@@H]1NC(=O)C[C@H](Cc1c[nH]c2ccccc12)NC(=O)[C@H]1CCCC[C@@H]1N` [H14 WA]: the Kd at CaM [6] turned out to be 307 µM; on CaM [2] it was 3 µM; on RecQ-WH, 293 µM; at S100B [3], 220 µM; on S100A4, 55 µM; at S100B [5], 58 µM.
`C[C@@H](O)[C@@H](CC(=O)N[C@H]1CCCC[C@@H]1C(N)=O)NC(=O)[C@H]1CCCC[C@@H]1NC(=O)[C@H]1CCCC[C@@H]1NC(=O)C[C@H](Cc1c[nH]c2ccccc12)NC(=O)[C@H]1CCCC[C@@H]1N` [H14 WT]: the Kd stood at 135 µM on CaM [6]; 6 µM on CaM [2]; 165 µM at RecQ-WH; 242 µM at S100B [3]; 157 µM on S100A4; 107 µM on S100B [5].
On to `C[C@@H](CC(=O)N[C@H]1CCCC[C@@H]1C(N)=O)NC(=O)[C@H]1CCCC[C@@H]1NC(=O)[C@H]1CCCC[C@@H]1NC(=O)C[C@H](Cc1ccc(O)cc1)NC(=O)[C@H]1CCCC[C@@H]1N` [H14 YA], for which the Kd is 366 µM on CaM [6]; 15 µM on CaM [2]; 329 µM at RecQ-WH; 436 µM on S100B [3]; 342 µM on Gal-1 [4]; 217 µM on S100A4.

The record behind these values is publication PMC8162404, “Proteomimetic surface fragments distinguish targets by function” (Chemical Science, 2020).
